# Target: T1, Human serum albumin (HSA) (Homo sapiens, UniProt P02768)
# T1 construct: gene ALB; fatty acid-free albumin from human serum; CPM-labelled at Cys-34 for FRET
# Assay: FRET (Trp-214 to CPM-Cys-34) titration with one-site fit; Trp fluorescence quenching, CD, DLS
# Assay type: binding
# Description: FRET (Trp-214 to CPM-Cys-34) titration with one-site fit; Trp fluorescence quenching, CD, DLS on Human serum albumin (HSA) | The effect was dose dependent and fit a one binding site isotherm, with a calculated maximum change in distance
# T1 sequence (P02768 25-609): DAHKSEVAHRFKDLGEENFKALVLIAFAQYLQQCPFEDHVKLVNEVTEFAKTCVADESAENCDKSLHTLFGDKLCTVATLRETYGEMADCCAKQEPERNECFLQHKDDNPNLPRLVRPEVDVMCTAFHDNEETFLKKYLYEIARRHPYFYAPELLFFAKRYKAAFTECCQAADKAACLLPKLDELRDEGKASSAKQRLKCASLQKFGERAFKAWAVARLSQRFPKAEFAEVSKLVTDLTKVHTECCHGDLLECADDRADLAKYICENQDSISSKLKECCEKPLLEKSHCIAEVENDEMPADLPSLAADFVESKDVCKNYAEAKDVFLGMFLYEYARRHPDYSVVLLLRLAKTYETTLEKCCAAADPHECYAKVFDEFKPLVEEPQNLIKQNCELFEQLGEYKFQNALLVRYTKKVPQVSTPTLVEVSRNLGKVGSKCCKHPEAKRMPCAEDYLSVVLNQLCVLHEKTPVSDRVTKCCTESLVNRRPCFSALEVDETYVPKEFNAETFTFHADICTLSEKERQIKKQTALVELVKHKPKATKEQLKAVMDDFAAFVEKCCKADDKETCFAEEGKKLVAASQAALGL
smiles,measurement,value
"O=C(O[C@@H]1Cc2c(O)cc(O)cc2O[C@@H]1c1cc(O)c(O)c(O)c1)c1cc(O)c(O)c(O)c1 [EGCg, (-)-epigallocatechin gallate]",EC50,3.7 µM

# Reference: PMC6920801, “Conformation and Aggregation of Human Serum Albumin in the Presence of Green Tea Polyphenol (EGCg) and/or Palmitic Acid” (Biomolecules, 2019)
